Our source for the MIC values is patent US20040147545A1, “Derivatives of oxazolidinones as antibacterial agents” (priority 2001, published 2004).

Common to all, as to type: cell-based
One experiment has as its system S. epidermidis. Briefly: Antibacterial activity, microdilution in culture broth (NCCLS), strain E. The following applies: Staphylococcus epidermidis, G (+) hospital strain, inoculum 5×10^5 UFC/ml. From the text: (§1) The antibacterial activity of the new synthesised compounds on the various strains of the bacterial species was implemented using the technique of microdilution in culture broth according to the regulations of the National Committee for Clinical Laboratory Standards (NCCLS), (NCCLS. 1993. Methods for dilution antimicrobial susceptibility tests for bacteria that grow aerobically. Approved standard M7-A3. NCCLS, Vilanova. Pa., and NCCLS. 1993. Methods for dilution antimicrobial susceptibility tests for anaerobic bacteria […]. Approved standard M1-A3. NCCLS, Vilanova. Pa.).
(§2) The inoculum used was 5×10^5 UFC/ml following dilution of the cultures overnight in the exponential phase of bacterial growth.
(§3) The MIC expressed in mg/l was defined as the minimum concentration of antibiotic which inhibited any visible growth.
(§4) Linezolid was included as comparative compound.
(§5) The compounds were tested on the strains of G(+) and G(−) bacteria set out in Table 1, in which: […]

For the next experiment, the system named is H. influenzae. The experiment in a line: Antibacterial activity, microdilution in culture broth (NCCLS), strain I. The note with it: Haemophilus influenzae, G (−) hospital strain, inoculum 5×10^5 UFC/ml.
Excerpt: as §1, §2, §3, §4, §5
(In general: Dilution methods test growth across graded concentrations, often in twofold steps.)

The test system of experiment [1] is S. aureus resistant to meticillin. Briefly: Antibacterial activity, microdilution in culture broth (NCCLS), strain A. The following applies: Staphylococcus aureus, G (+) hospital strain, inoculum 5×10^5 UFC/ml.
Excerpt: as §1, §2, §3, §4, §5

The subject of the next experiment is M. Catarrahalis. The experiment in a line: Antibacterial activity, microdilution in culture broth (NCCLS), strain J. The following applies: G (−) hospital strain, inoculum 5×10^5 UFC/ml.
Excerpt: as §1, §2, §3, §4, §5

The test system of the next experiment is B. fragilis. The experiment in a line: Antibacterial activity, microdilution in culture broth (NCCLS), strain G (anaerobic). The note with it: Bacteroides fragilis, anaerobic hospital strain, inoculum 5×10^5 UFC/ml.
Excerpt: as §1, §2, §3, §4, §5

In another experiment the test system is E. coli. Briefly: Antibacterial activity, microdilution in culture broth (NCCLS), strain H. The following applies: Escherichia coli, G (−) hospital strain, inoculum 5×10^5 UFC/ml.
Excerpt: as §1, §2, §3, §4, §5

Experiment [2] concerns E. faecalis resistant to vancomycin. The experiment in a line: Antibacterial activity, microdilution in culture broth (NCCLS), strain B. The following applies: Enterococcus faecalis, G (+) hospital strain, inoculum 5×10^5 UFC/ml.
Excerpt: as §1, §2, §3, §4, §5

Another experiment deals with S. pyogenes. Briefly: Antibacterial activity, microdilution in culture broth (NCCLS), strain F. The following applies: Streptococcus pyogenes, G (+) hospital strain, inoculum 5×10^5 UFC/ml.
Excerpt: as §1, §2, §3, §5

For a further experiment, the system named is S. agalactiae. The experiment in a line: Antibacterial activity, microdilution in culture broth (NCCLS), strain D. The note with it: Streptococcus agalactiae, G (+) hospital strain, inoculum 5×10^5 UFC/ml.
Excerpt: as §1, §2, §3, §4, §5

The test system of experiment [3] is S. pneumoniae resistant to penicillin. Briefly: Antibacterial activity, microdilution in culture broth (NCCLS), strain C. The following applies: Streptococcus pneumoniae, G (+) hospital strain, inoculum 5×10^5 UFC/ml.
Excerpt: as §1, §2, §3, §4, §5

SMILES strings stand for the structures. Converted amounts (≈) assume the structure as drawn. Where only a bound is given, the exact number is not on record here.

`CC(=O)NC[C@H]1CN(c2ccc(N3CCN(c4cc5c(cc4F)c(=O)c(C(=O)O)cn5C4CC4)CC3)c(F)c2)C(=O)O1` [EXAMP. 1 + 8, 7-(4-{4-[5-(S)-(acetylamino-methyl)-2-oxo-oxazolidin-3-yl]-2-fluoro-phenyl}-piperazin-1-yl)-1-cyclopropyl-6-fluoro-4-oxo-1,4-dihydro-quinoline-3-carboxylic Acid]: the MIC in the experiment with S. epidermidis came out at 0.125 µg/mL; in the experiment with H. influenzae, 0.25 µg/mL; in [1], 0.25 µg/mL; in the experiment on M. Catarrahalis it was 0.25 µg/mL; in the experiment on B. fragilis, 0.25 µg/mL; in the experiment with E. coli, 8 µg/mL. The MIC in experiment [2] is 0.125 µg/mL; in the experiment with S. pyogenes, < 0.125 µg/mL; against S. agalactiae, 0.125 µg/mL; in [3], < 0.125 µg/mL.

Turning to `CCn1cc(C(=O)O)c(=O)c2cc(F)c(N3CCN(c4ccc(N5C[C@H](CNC(C)=O)OC5=O)cc4F)CC3)c(F)c21` [EXAMP. 3, 7-(4-{4-[5-(S)-(acetylamino-methyl)-2-oxo-oxazolidin-3-yl]-2-fluoro-phenyl}-piperazin-1-yl)-1-ethyl-6,8-difluoro-4-oxo-1,4-dihydro-quinoline-3-carboxylic Acid], the MIC is < 0.125 µg/mL with S. epidermidis; 4 µg/mL (≈ 6.81 µM) with H. influenzae; < 0.125 µg/mL in experiment [1]; 0.5 µg/mL (≈ 0.851 µM) against M. Catarrahalis; 0.5 µg/mL (≈ 0.851 µM) with B. fragilis; 64 µg/mL (≈ 109 µM) in the experiment on E. coli. The MIC (in [2]; against S. pyogenes; against S. agalactiae; in experiment [3]) was < 0.125 µg/mL throughout.

For the molecule `CCn1cc(C(=O)O)c(=O)c2cc(F)c(N3CCN(c4ccc(N5C[C@H](CNC(C)=O)OC5=O)cc4F)CC3)cc21` [EXAMP. 4, 7-(4-{4-[5-(S)-(acetylamino-methyl)-2-oxo-oxazolidin-3-yl]-2-fluoro-phenyl}-piperazin-1-yl)-1-ethyl-6-fluoro-4-oxo-1,4-dihydro-quinoline-3-carboxylic Acid], the MIC is < 0.125 µg/mL in the experiment on S. epidermidis; 2 µg/mL (≈ 3.51 µM) against H. influenzae; 0.25 µg/mL (≈ 0.439 µM) in experiment [1]; 1 µg/mL (≈ 1.76 µM) against M. Catarrahalis; 0.5 µg/mL (≈ 0.878 µM) against B. fragilis; 16 µg/mL (≈ 28.1 µM) with E. coli. For the same molecule, the MIC in [2] was 0.25 µg/mL (≈ 0.439 µM); against S. pyogenes, < 0.125 µg/mL; against S. agalactiae, < 0.125 µg/mL; in experiment [3], < 0.125 µg/mL.

Regarding `CC(=O)NC[C@H]1CN(c2ccc(N3CCN(c4c(F)cc5c(=O)c(C(=O)O)cn6c5c4OCC6C)CC3)cc2)C(=O)O1` (stereo partly drawn) [EXAMP. 5, 9-(4-{4-[5-(S)-(acetylamino-methyl)-2-oxo-oxazolidin-3-yl]-phenyl}-piperazin-1-yl)-8-fluoro-3-methyl-6-oxo-2,3-dihydro-6H-1-oxa-3a-aza-phenalen-5-carboxylic Acid], the MIC against S. epidermidis was 0.25 µg/mL (≈ 0.431 µM); against H. influenzae it was 1 µg/mL (≈ 1.73 µM); in experiment [1], 0.5 µg/mL (≈ 0.863 µM); in the experiment on M. Catarrahalis it was 1 µg/mL (≈ 1.73 µM); in the experiment with B. fragilis, 2 µg/mL (≈ 3.45 µM); against E. coli, 4 µg/mL (≈ 6.9 µM). Further, the MIC (in experiment [2]; in the experiment with S. pyogenes; with S. agalactiae; in experiment [3]) was 0.5 µg/mL (≈ 0.863 µM) each time.

For the molecule `CC(=O)NC[C@H]1CN(c2ccc(N(C)C3CCN(c4c(F)cc5c(=O)c(C(=O)O)cn6c5c4OCC6C)C3)c(F)c2)C(=O)O1` (stereo partly drawn) [EXAMP. 6, 9-[3-({4-[5-(S)-(acetylamino-methyl)-2-oxo-oxazolidin-3-yl]-2-fluoro-phenyl}-methyl-amino)-pyrrolidin-1-yl]-8-fluoro-3-methyl-6-oxo-2,3-dihydro-6H-1-oxa-3a-aza-phenalen-5-carboxylic Acid], the MIC with S. epidermidis was 0.5 µg/mL (≈ 0.818 µM); in the experiment on H. influenzae, < 0.125 µg/mL; in experiment [1] it was 2 µg/mL (≈ 3.27 µM); against M. Catarrahalis it was 0.25 µg/mL (≈ 0.409 µM); against B. fragilis, 16 µg/mL (≈ 26.2 µM); with E. coli, 2 µg/mL (≈ 3.27 µM). Further, the MIC in [2] was 1 µg/mL (≈ 1.64 µM); in the experiment on S. pyogenes it was 1 µg/mL (≈ 1.64 µM); in the experiment on S. agalactiae it was 0.5 µg/mL (≈ 0.818 µM); in [3], 1 µg/mL (≈ 1.64 µM).

With `CC(=O)NC[C@H]1CN(c2ccc(N3CCN(c4c(F)cc5c(=O)c(C(=O)O)cn6c5c4OCC6C)CC3)c(F)c2)C(=O)O1` (stereo partly drawn) [EXAMP. 7, 9-(4-{4-[5-(S)-(acetylamino-methyl)-2-oxo-oxazolidin-3-yl]-2-fluoro-phenyl}-piperazin-1-yl)-8-fluoro-3-methyl-6-oxo-2,3-dihydro-6H-1-oxa-3a-aza-phenalene-5-carboxylic Acid], the MIC amounted to 0.25 µg/mL (≈ 0.418 µM) against S. epidermidis; 4 µg/mL (≈ 6.69 µM) in the experiment on H. influenzae; 0.25 µg/mL (≈ 0.418 µM) in experiment [1]; 1 µg/mL (≈ 1.67 µM) against M. Catarrahalis; 2 µg/mL (≈ 3.35 µM) against B. fragilis; 8 µg/mL (≈ 13.4 µM) with E. coli. Besides, the MIC stood at 0.5 µg/mL (≈ 0.837 µM) in [2], 0.25 µg/mL (≈ 0.418 µM) against S. pyogenes, 0.5 µg/mL (≈ 0.837 µM) against S. agalactiae and 0.25 µg/mL (≈ 0.418 µM) in experiment [3].

For the molecule `CNC(=S)NC[C@H]1CN(c2ccc(N3CCN(c4cc5c(cc4F)c(=O)c(C(=O)O)cn5C4CC4)CC3)c(F)c2)C(=O)O1` [EXAMP. 9, 1-cyclopropyl-6-fluoro-7-[4-(2-fluoro-4-{5-(S)-[(3-methyl-thioureido)-methyl]-2-oxo-oxazolidin-3-yl}-phenyl)-piperazin-1-yl]-4-oxo-1,4-dihydro-quinoline-3-carboxylic Acid], the MIC with S. epidermidis was < 0.125 µg/mL; in the experiment on H. influenzae it was 1 µg/mL (≈ 1.63 µM); in experiment [1], < 0.125 µg/mL; in the experiment with M. Catarrahalis, 0.25 µg/mL (≈ 0.408 µM); in the experiment with B. fragilis it was 0.5 µg/mL (≈ 0.816 µM); in the experiment with E. coli it was > 64 µg/mL. The MIC (in experiment [2]; in the experiment with S. pyogenes; in the experiment with S. agalactiae; in experiment [3]) was < 0.125 µg/mL each time.

Consider `CCNC(=O)NC[C@H]1CN(c2ccc(N3CCN(c4cc5c(cc4F)c(=O)c(C(=O)O)cn5C4CC4)CC3)c(F)c2)C(=O)O1` [EXAMP. 10, 1-cyclopropyl-7-[4-(4-{5-(S)-[(3-ethyl-ureido)-methyl]-2-oxo-oxazolidin-3-yl}-2-fluoro-phenyl)-piperazin-1-yl]-6-fluoro-4-oxo-1,4-dihydro-quinoline-3-carboxylic Acid], for which the MIC against S. epidermidis came out at 0.25 µg/mL (≈ 0.409 µM); against H. influenzae, 4 µg/mL (≈ 6.55 µM); in experiment [1], 1 µg/mL (≈ 1.64 µM); in the experiment with M. Catarrahalis, 2 µg/mL (≈ 3.28 µM); against B. fragilis, 4 µg/mL (≈ 6.55 µM); in the experiment with E. coli, 64 µg/mL (≈ 105 µM). Also, the MIC in [2] was 2 µg/mL (≈ 3.28 µM); with S. pyogenes, 1 µg/mL (≈ 1.64 µM); in the experiment with S. agalactiae, 1 µg/mL (≈ 1.64 µM); in experiment [3], 1 µg/mL (≈ 1.64 µM).

For `CCOC(=O)NC[C@H]1CN(c2ccc(N3CCN(c4cc5c(cc4F)c(=O)c(C(=O)O)cn5C4CC4)CC3)c(F)c2)C(=O)O1` [EXAMP. 11, 1-cyclopropyl-7-(4-{4-[5-(S)-(ethoxycarbonylamino-methyl)-2-oxo-oxazolidin-3-yl]-2-fluoro-phenyl}-piperazin-1-yl)-6-fluoro-4-oxo-1,4-dihydro-quinoline-3-carboxylic Acid], the MIC against S. epidermidis was found to be 0.125 µg/mL (≈ 0.204 µM); in the experiment with H. influenzae, 4 µg/mL (≈ 6.54 µM); in [1] it was 0.5 µg/mL (≈ 0.818 µM); against M. Catarrahalis, 1 µg/mL (≈ 1.64 µM); in the experiment with B. fragilis it was 1 µg/mL (≈ 1.64 µM); with E. coli, 32 µg/mL (≈ 52.3 µM). Also, the MIC in experiment [2] was determined as 0.5 µg/mL (≈ 0.818 µM); in the experiment with S. pyogenes, 0.5 µg/mL (≈ 0.818 µM); against S. agalactiae, 1 µg/mL (≈ 1.64 µM); in experiment [3] it was 0.5 µg/mL (≈ 0.818 µM).

With `CCOC(=O)c1cn(C2CC2)c2nc(N3CCN(c4ccc(N5C[C@H](CNC(C)=O)OC5=O)cc4F)CC3)c(F)cc2c1=O` [EXAMP. 16, 7-(4-{4-[5-(S)-(acetylamino-methyl)-2-oxo-oxazolidin-3-yl]-2-fluoro-phenyl}-piperazin-1-yl)-1-cyclopropyl-6-fluoro-4-oxo-1,4-dihydro-[1,8]Naphthyridine-3-carboxylic Acid Ethyl Ester], the MIC is 2 µg/mL (≈ 3.28 µM) against S. epidermidis; > 64 µg/mL against H. influenzae; 4 µg/mL (≈ 6.55 µM) in experiment [1]; 8 µg/mL (≈ 13.1 µM) in the experiment on M. Catarrahalis; 8 µg/mL (≈ 13.1 µM) against B. fragilis; > 64 µg/mL in the experiment with E. coli. The MIC in [2] came to 2 µg/mL (≈ 3.28 µM); with S. pyogenes, 1 µg/mL (≈ 1.64 µM); against S. agalactiae, 1 µg/mL (≈ 1.64 µM); in [3], 1 µg/mL (≈ 1.64 µM).

`CC(=O)NC[C@H]1CN(c2ccc(N3CCOCC3)c(F)c2)C(=O)O1` [Linezolid, reference compound]: the MIC in the experiment with S. epidermidis is 1 µg/mL (≈ 2.96 µM); in the experiment on H. influenzae, 16 µg/mL (≈ 47.4 µM); in [1], 2 µg/mL (≈ 5.93 µM); against M. Catarrahalis, 16 µg/mL (≈ 47.4 µM); against B. fragilis it was 2 µg/mL (≈ 5.93 µM); against E. coli it was > 64 µg/mL. The MIC in experiment [2] is 2 µg/mL (≈ 5.93 µM); with S. agalactiae it was 2 µg/mL (≈ 5.93 µM); in [3] it was 1 µg/mL (≈ 2.96 µM).
